Experiments:
[1] = biological target: T1, PPARγ (Homo sapiens, UniProt P37231); assay: PPARγ partial agonism (Example 8, FIG. 6); assay type: cell-based
T1 sequence (P37231 1-505): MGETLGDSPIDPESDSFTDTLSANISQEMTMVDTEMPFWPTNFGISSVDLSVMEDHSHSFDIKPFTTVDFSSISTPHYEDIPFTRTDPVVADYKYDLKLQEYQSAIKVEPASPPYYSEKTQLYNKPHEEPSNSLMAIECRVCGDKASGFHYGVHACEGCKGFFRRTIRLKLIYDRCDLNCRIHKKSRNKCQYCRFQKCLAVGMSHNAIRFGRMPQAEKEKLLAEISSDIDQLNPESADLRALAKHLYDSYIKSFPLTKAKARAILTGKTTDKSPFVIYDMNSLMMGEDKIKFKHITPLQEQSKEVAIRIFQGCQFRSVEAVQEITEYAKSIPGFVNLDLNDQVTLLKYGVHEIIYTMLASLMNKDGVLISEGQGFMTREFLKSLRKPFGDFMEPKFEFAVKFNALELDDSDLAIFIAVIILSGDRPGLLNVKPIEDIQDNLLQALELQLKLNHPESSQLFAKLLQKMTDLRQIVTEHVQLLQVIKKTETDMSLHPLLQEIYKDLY

[2] = test system: human subjects also receiving glyburide; assay: 14 days of treatment in human subjects also receiving glyburide; assay type: in vivo
Text: The data for pioglitazone (Actos) is taken from Goldberg R B et al., Diabetes Care 28(7):1547-54 (2005), which is incorporated herein by reference.

[3] = test system: type 2 diabetics with inadequate control on insulin; assay: two randomized, double-blind, placebo-controlled studies on type 2 diabetics with inadequate control on insulin; assay type: in vivo, human
Text: Example 9 presents the results of two randomized, double-blind, placebo-controlled, multi-centre studies on type 2 diabetics with inadequate control on insulin. […] Both studies were about 4 months long, with a stabilization/run in period for 2 to 4 weeks and a 3 month treatment period. Endpoints included fasting plasma glucose (FPG), HbA1c, weight, and the incidence of edema.

[4] = test system: monkeys; assay: separate animal studies, heart weight and fluid accumulation (monkeys); assay type: in vivo; conditions: therapeutically relevant doses, data not shown
[5] = test system: rats; assay: separate animal studies, heart weight and fluid accumulation (rats); assay type: in vivo; conditions: therapeutically relevant doses, data not shown
[6] = plasma hydrolysis of prodrug esters of (−) CPTA; assay type: in vitro ADME; conditions: human plasma (heparinized, pooled), 37° C., 125 or 250 μM prodrug; read-out: Plasma T1/2
Experimental: This example illustrates the plasma hydrolysis of various prodrug esters of the (S)-enantiomer of CPTA at physiological conditions. Hydrolysis was monitored and analyzed by HPLC. The hydrolytic product was identified by comparison to authentic (−) CPTA and the hydrolytic rates were calculated.
Human plasma (heparinized, pooled) was obtained from Golden West Biololgicals Inc., USA; Plasma incubation was carried out in a Water Bath Shaker (New Brunswick Scientific, Inc.); Sample analyses were carried out on Agilent HPLC 1100 system.
Prepare 31.25 or 62.5 mM prodrug stock solutions in 100% DMSO. Add 4 μL of 31.25 or 62.5 mM prodrug stock solutions to 1.0 mL of plasma in a microcentrifuge tube to make plasma concentration at 125 or 250 μM, mix gently. Aliquots of 50 μL are transferred to 15 microcentrifuge vials. Three samples are immediately removed to a freezer at about −80° C. (0 time point), the remaining samples are incubated in a bath shaker at 37° C. Three samples are removed at 30 min, 2, 7 and 24 hr, and stored at −80° C. until analysis. The relative concentrations of MBX-compounds are determined by HPLC methods. If there are enough data points, the hydrolytic rate can be calculated using WinNonlin software. Table 10 provides a summary of plasma half-lives of some pro-drug esters and FIGS. 20A-20G illustrate the hydrolytic curves of those prodrug esters. […]

CC(=O)NCCOC(=O)C(Oc1cccc(C(F)(F)F)c1)c1ccc(Cl)cc1 (single isomer, unassigned; (-)) [(−) halofenate, (−) 2-acetamidoethyl 4-chlorophenyl-(3-trifluoromethylphenoxy)acetate]
ability to induce PPARγ expression [1]: a few fold
antagonism of the agonist activity of rosiglitazone [1]: significantly antagonizing the agonist activity of rosiglitazone
hsCRP levels ([2]; human patients, 14 days of treatment, dose dependent (FIG. 20)): lower hsCRP levels
blood glucose levels ([2]; patients also receiving glyburide, 14 days of treatment (FIG. 19)): substantially lower blood glucose levels
adverse effects on selected parameters: upper GI tract, liver, blood, kidney ([3]; additional analyses, data not shown): not associated with an excess of adverse effects
serum triglycerides ([3]; additional results, data not shown): lowered serum triglycerides substantially
incidence of edema formation compared to combined placebo groups ([3]; both studies, dose range 200- to 600 mg (FIG. 17)): did not increase the incidence of edema formation
Discontinued due to AE ([3]; first study, 200 mg group): 3 (4.1%)
Discontinued due to AE ([3]; first study, 400 mg group): 3 (4.3%)
plasma glucose levels as judged by HbA1c compared to placebo ([3]; first study, 200- and 400 mg (FIG. 8)): lowered plasma glucose levels as judged by HbA1c levels
edema formation compared to placebo ([3]; first study, 200- and 400 mg (FIG. 9)): prevented edema formation
weight gain compared to placebo ([3]; first study, 200- and 400 mg (FIG. 10)): did not induce weight gain
fasting plasma glucose levels compared to placebo ([3]; first study, 200- and 400 mg, 3 month treatment (FIG. 7)): lowered fasting plasma glucose levels
plasma glucose levels as judged by HbA1c compared to placebo ([3]; first study, 200- and 400 mg, sites 60 and 70 removed (FIG. 15)): lowered plasma glucose levels as judged by HbA1c levels
fasting plasma glucose levels compared to placebo ([3]; first study, 200- and 400 mg, sites 60 and 70 removed (FIG. 16)): lowered fasting plasma glucose levels
fasting plasma glucose levels compared to placebo ([3]; second study, 600 mg (FIG. 11)): lowered fasting plasma glucose levels
weight gain compared to placebo ([3]; second study, 600 mg (FIG. 18)): did not induce weight gain
plasma glucose levels as judged by HbA1c ([3]; second study, 600 mg, all sites, placebo group demonstrated a comparable response (FIG. 12)): lowered plasma glucose levels as judged by HbA1c levels in the experimental group substantially from baseline
plasma glucose levels as judged by HbA1c compared to placebo ([3]; second study, 600 mg, sites 60 and 70 removed (FIG. 13)): lowered plasma glucose levels as judged by HbA1c levels
fasting plasma glucose levels compared to placebo ([3]; second study, 600 mg, sites 60 and 70 removed (FIG. 14)): lowered fasting plasma glucose levels
heart weight or fluid accumulation [4]: did not cause increases at therapeutically relevant doses in heart weight or fluid accumulation
heart weight or fluid accumulation [5]: did not cause increases at therapeutically relevant doses in heart weight or fluid accumulation

C=C/C=C(\C=C)C(=O)NCCOC(=O)C(Oc1cccc(C(F)(F)F)c1)c1ccc(Cl)cc1 (centres unmarked) [Compound 19.4]
half-life [6]: < 1 h
